Measurements from patent US20210379095A1, “Methods and Combination Therapy to Treat Biliary Tract Cancer” (ARRAY BIOPHARMA INC., priority 2018, published 2021).

Tests used:
[1] = tested on: advanced or metastatic BTC; settings: binimetinib monotherapy, advanced or metastatic BTC patients; cited from earlier work
[2] = tested on: thymidylate synthase (TS); assay: Western blot of protein expression in BTC cells; format: cell-based; settings: 48 hours
Protocol: The effect of binimetinib, 5-fluorouracil (5-FU), or combination of these drugs on cell viability was evaluated using eight BTC cell lines (SNU245, SNU308, SNU478, SNU869, SNU1079, SNU1196, TFK1, and HuCCT1). As capecitabine is converted to 5-FU in vivo, 5-FU was used as an […] of oral administration of capecitabine in this preclinical study in cell lines. […] Subsequently, cell viability was measured at 540 nm with a Multiskan GO microplate reader using a commercially available MTT assay, according to the manufacturer's directions. The Chou-Talalay method was used to assess a combination effect. […] Actin was included as a loading control.

[3] = tested on: BTC cell lines (SNU245, SNU308, SNU478, SNU869, SNU1079, SNU1196, TFK1, and HuCCT1); assay: MTT cell viability assay; format: cell-based; settings: eight BTC cell lines, 72 hours exposure
Protocol: (§1) The effect of binimetinib, 5-fluorouracil (5-FU), or combination of these drugs on cell viability was evaluated using eight BTC cell lines (SNU245, SNU308, SNU478, SNU869, SNU1079, SNU1196, TFK1, and HuCCT1). As capecitabine is converted to 5-FU in vivo, 5-FU was used as an […] of oral administration of capecitabine in this preclinical study in cell lines. In brief, confluent monolayers, which had been grown in 96 well plates, were exposed to drugs for 72 hours. Subsequently, cell viability was measured at 540 nm with a Multiskan GO microplate reader using a commercially available MTT assay, according to the manufacturer's directions. The Chou-Talalay method was used to assess a combination effect. Cells were also treated with drugs for 48 hours and the expression of thymidylate synthase (TS), programmed death-ligand 1 (PD-L1), and β-actin was determined using western blot analysis according to a published protocol. Actin was included as a loading control.

[4] = tested on: programmed death-ligand 1 (PD-L1); assay: Western blot of protein expression in BTC cells; format: cell-based; settings: 48 hours
Protocol: as §1

**Q.** With `Cn1cnc2c(F)c(Nc3ccc(Br)cc3F)c(C(=O)NOCCO)cc21` [binimetinib, 6-(4-bromo-2-fluorophenylamino)-7-fluoro-3-methyl-3H-benzoimidazole-5-carboxylic acid (2-hydroxyethoxy)-amide] as the compound, how does the DCR [1] read?
**A.** 51%

**Q.** And the ORR [1]?
**A.** 8%

**Q.** What about the OS [1] of the same compound?
**A.** 4.8 months

**Q.** And the PFS [1]?
**A.** 2.1 months

**Q.** What about the “thymidylate synthase (TS) expression” value [2] of the same compound?
**A.** downregulated

**Q.** And the cell viability [3]?
**A.** significant decreases in cell viability

**Q.** For `O=c1[nH]cc(F)c(=O)[nH]1` [5-FU, 5-fluorouracil], which “thymidylate synthase (TS) expression” value [2] is on record?
**A.** upregulated

**Q.** And the PD-L1 expression [4]?
**A.** induced PD-L1 expression
